In US8785452B2, “Anti-infective compounds” (priority 2008, dated 2014):

Test system: M. tuberculosis clinical isolates
Type: cell-based, Mycobacterium tuberculosis
Details: multi-drug-resistant and extensive-drug-resistant isolates

Cc1cccn2c(=O)c(C=O)c(Nc3cccc(Cl)c3)nc12 [compound 133, 2-(3-Chlorophenylamino)-9-methyl-4-oxo-4H-pyrido[1,2-a]pyrimidine-3-carbaldehyde]
activity (MIC values) against MDR and XDR clinical isolates, in words: within the micromolar range
